Data from patent publication US20250164396A1, “METHOD FOR VISUALIZING DENATURED STATE OR AGGREGATED STATE OF PROTEIN” (TOHOKU UNIVERSITY, priority 2022, published 2025).
Each block holds one compound with its values, some of them ahead of it.

What was measured:
[1] = target: T1, bovine carbonic anhydrase (CAII) (Bos taurus, UniProt P00921); assay: Detection of heat-denatured CAII in HEK293FT cell disruption solution by two-dimensional electrophoresis, with or without ligand; assay type: binding
T1 construct: purchased Aldrich C3934
T1 sequence (P00921 whole entry): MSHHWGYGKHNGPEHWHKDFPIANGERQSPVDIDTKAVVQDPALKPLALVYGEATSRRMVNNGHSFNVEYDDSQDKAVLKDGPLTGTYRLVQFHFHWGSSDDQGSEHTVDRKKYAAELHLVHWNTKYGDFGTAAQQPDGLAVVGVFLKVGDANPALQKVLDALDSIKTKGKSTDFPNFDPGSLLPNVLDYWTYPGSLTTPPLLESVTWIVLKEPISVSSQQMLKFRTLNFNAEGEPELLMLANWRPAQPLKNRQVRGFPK
Protocol: Thereafter, centrifugation was performed at 14,000×g for 10 minutes, and the supernatant was collected. […] The PCR tube was heated in a thermal cycler (Applied Biosystems, Mini Amp Plus) at 65° C. for 5 minutes and then allowed to stand at room temperature. The subsequent protocol to prepare two-dimensional electrophoresis samples was performed in the following two ways.
(Protocol to collect all proteins) A sample was prepared according to the protocol of the ReadyPrep 2-D cleanup kit (Bio-Rad), and the final pellets obtained were dissolved in 15 μL of swelling buffer (containing ampolyte, pH: 3-10) included with the Auto2D Glycine Type Reagent Kit.
(Protocol to collect pellets) The heated sample was centrifuged (at 20,000×g for 20 minutes), the supernatant was discarded, and the remaining pellets were dissolved in 15 μL of swelling buffer (containing ampolyte, pH: 3-10) included with the Auto2D Glycine Type Reagent Kit.
Two-dimensional electrophoresis was performed according to the long-term protocol of Auto 2D Plus (Merck), and fluorescence images of the resulting gel were obtained using a fluorescence imager (Vilver Lourmat, Fusion Solo S). […] The ONBD compound used was iPrONBD described above.

[2] = system: HSP90; assay: SDS-PAGE fluorescence detection of denatured HSP90 in HeLa cell lysate, with or without geldanamycin; assay type: binding; settings: probe 1 mM, geldanamycin 50 μM, each temperature for 5 minutes, pellet fraction; FIG. 16
Protocol: HeLa cells were scraped with a scraper and washed three times with ice-cold PBS, and a protease inhibitor cocktail (Nacalai, 25955-24) was resuspended in ice-cold M-PER buffer (Thermo Fisher Scientific, 78503) and allowed to stand on ice for 10 minutes. After centrifugation at 20,000×g for 20 minutes at 4° C., the supernatant was separated from the cell lysate. The protein concentration was determined by using the BCA method. To the supernatant (2 mg/ml), the same amount of geldanamycin (TCI, […]; final concentration: 50 μM) and DMSO were added, followed by treatment at room temperature for 10 minutes. […] A stock solution (DMSO solution) of 100 mM ONBD was added to the sample to a final concentration of 1 mM and allowed to stand at 37° C. for 30 minutes, and the solution was then transferred to a PCR tube. The PCR tube was heated using a thermal cycler (MiniAmp Plus) at each temperature for 5 minutes and then allowed to stand at room temperature. The sample was centrifuged at 20,000×g for 15 minutes at 4° C. In 1D SDS-PAGE (Bio-Rad, 4-10% acrylamide gel) of the pellet fraction, SDS-PAGE was performed while mixing with 1×SDS sample buffer and heating for 5 minutes at 95° C. Using various probes, SDS-PAGE was performed in the same manner as in Example 17 under heating conditions of 45° C. for 5 minutes (FIG. 17). […]

[3] = target: T2, Bovine carbonic anhydrase (Bos taurus, UniProt P00921); assay: Fluorescence response of ONBD probes to heat denaturation of carbonic anhydrase; settings: 1 mM ONBD compound; heated from 25° C. by 5° C. every 180 seconds; FIG. 1
T2 construct: purchased Aldrich C3934
T2 sequence (P00921 whole entry): as above
Protocol: The PCR tube was heated with a protocol to increase the temperature by 5° C. every 180 seconds from 25° C. using a real-time PCR system (Takara Bio Inc., Thermal Cycler Dice, TP800). The fluorescence (FAM mode for ONBD compounds) was measured at the last 15 seconds of each step. Sypro Orange (Invitrogen S6650, 5000× concentration in DMSO) of the comparison target was added to a final concentration of 10×, the same operation was carried out, and the fluorescence was measured in ROX mode. The ONBD compounds used were the following five types: MeONBD, iPrONBD, nBuONBD, iBuONBD, and octylONBD.

[4] = system: HSP90; assay: Two-dimensional electrophoresis of probe-labelled HeLa lysate, denatured HSP90 with or without geldanamycin; assay type: binding; settings: probe 1 mM, geldanamycin 50 μM, 45° C. for 5 minutes, total protein; FIG. 18
Protocol: HeLa cells were scraped with a scraper and washed three times with ice-cold PBS, and a protease inhibitor cocktail (Nacalai, 25955-24) was resuspended in ice-cold M-PER buffer (Thermo Fisher Scientific, 78503) and allowed to stand on ice for 10 minutes. After centrifugation at 20,000×g for 20 minutes at 4° C., the supernatant was separated from the cell lysate. The protein concentration was determined by using the BCA method. To the supernatant (2 mg/ml), the same amount of geldanamycin (TCI, […]; final concentration: 50 μM) and DMSO were added, followed by treatment at room temperature for 10 minutes. […] A stock solution (DMSO solution) of 100 mM iPrONBD was added to the sample to a final concentration of 1 mM and allowed to stand at 37° C. for 30 minutes, and the solution was then transferred to a PCR tube. The PCR tube was heated using a thermal cycler (MiniAmp Plus) at 45° C. for 5 minutes and then allowed to stand at room temperature. A sample was prepared according to the protocol of the ReadyPrep 2-D cleanup kit (Bio-Rad), and the final pellets obtained were dissolved in 15 μL of swelling buffer (containing ampolyte, pH: 3-10) included with the Auto2D Glycine Type Reagent Kit, followed by two-dimensional electrophoresis (FIG. 18).

[5] = target: T3, α-Synuclein fibril (Homo sapiens, UniProt P37840); assay: Quantification of aggregated state of α-synuclein fibril by probe fluorescence; settings: 500 nM fibril, 37° C.; FIG. 3
T3 construct: purchased Cosmo Bio Co., Ltd. SYN03
Protocol: α-Synuclein fibril (Cosmo Bio Co., Ltd., SYN03) was diluted with 10 mM MES buffer (pH: 7.4) to prepare a 500 nM solution. The solution was dispensed in 50 μL portions in a 96-well half well black plate (Greiner, 675086). […] The fluorescence (using filters for Ex: […]) was measured in a plate reader (Teccan, Infinite 200 Pro F PLEX) under constant temperature conditions at 37° C. with plate shaking at 1 second per minute. The ONBD compounds used were three types: iPrONBD and octylONBD described above, as well as PEGONBD shown below.

suitability as probe under the denaturation conditions ([1]; 65° C., 5 minutes): appropriate probe
Compound: O=[N+]([O-])c1ccc(Br)c2nonc12 [Br-NBD]
reduction in the fluorescence intensity of CA by brinzolamide, comparison of probes ([1]; iPrONBD versus BrNDB, FIG. 15): the reduction in the fluorescence intensity of CA was more significant

Compound: CC(C)Oc1ccc([N+](=O)[O-])c2nonc12 [iPrONBD]
visualization of ligand-induced heat denaturation resistance of HSP90 by probe fluorescence [2]: it was possible to visualize the acquisition of target heat denaturation resistance by ligand addition
increase in the fluorescence intensity on heating [3]: the increase in the fluorescence intensity was significant
visualization of ligand-induced change in heat denaturation resistance of HSP90 by probe fluorescence [4]: it was possible to visualize changes in the heat denaturation resistance of the target HSP90 by ligand addition

Compound: CCCCCCCCOc1ccc([N+](=O)[O-])c2nonc12 [octylONBD]
increase in fluorescence intensity over time in the presence of α-synuclein fibril [5]: the increase in the fluorescence intensity was significant
